# Assay results taken from patent US20110020312A1, “METHODS FOR TREATMENT OF METABOLIC DISORDERS USING EPIMETABOLIC SHIFTERS, MULTIDIMENSIONAL INTRACELLULAR MOLECULES, OR ENVIRONMENTAL INFLUENCERS” (priority 2009, published 2011).
# Key:
# [1] = system: Pancreatic Cancer Cells (PaCa2); experiment: Real-time PCR Diabetes Array; type: cell-based; conditions: 100 uM Q10, various times
# Method: Experiments were carried out essentially as described above.
# [2] = system: HepG2 (liver cancer) cells; experiment: PCR Diabetes Array; type: cell-based
# Method: The treatment was initiated on 1×10^5 cells per well, following the procedure utilized in the PaCa2 cells (above, Examples 9-11). However, the total amount of RNA that was extracted from these samples was lower than expected. Reverse transcription is normally done using 1 μg of total RNA (determined by measurement at 260 nm). The maximum volume that can be used per reverse transcription is 8 μl.
# ATP Citrate Lyase (ACL) = experiment: Western blot, ATP Citrate Lyase levels in normal and cancer cells; type: cell-based, human
# Method: The whole cell pellets were resuspended one at a time in 1 mL of C7 buffer and transferred to labeled 15 mL tubes. The samples were then sonicated in the cold room on ice using 6 sonic pulses with the setting at #14. The samples were spun for a short time to 2500 g after sonication and the samples transferred to 2 ml tubes. The pH was verified of each sample (pH should be 9.0) using the foam remaining in the […] sample tubes.
# After transfer each of the blots was placed in between 2 Whatman Filter papers and dried for 15-20 minutes. After drying the blots were labeled with the date, the type of samples and either blot 1 or blot 2 using a HB pencil. The molecular weight markers were outlined with the pencil and with single lines for the blue and a doublet for the colored markers. The blots were activated with methanol for 5 seconds, washed with water for 5 minutes, and TBST for 15 minutes. The blots were blocked for 1 hour with 5% blocking reagent in TBS-T at room temperature and then washed 3 times with TBS-T (1×-15′; 2×5′ each). Blot 1 was probed with the primary antibody for IDH1 (Cell Signaling #3997) in TBST with 5% BSA (at 1:1000 dilutions) and blot 2 with the rabbit polyclonal antibody for ATP Citrate Lyase in 5% BSA (Cell Signaling #4332) at 1:1000 dilution by incubation overnight at 4 deg C. with shaking. After the overnight incubation with primary antibodies, the blots were washed 3 times with TBS-T (1×-15′; 2×5′ each) and probed with the secondary antibody (antirabbit; 1:10,000 dilution) for 1 h on the orbital tilting shaker at room temperature. After 1 h of incubation with secondary antibodies, the blots were washed 3 times with TBS-T (1×-15′; 2×5′ each) and then incubated with ECF reagent for 5 mins and then each blot scanned with 5100 Fuji Laser scanner at 25 uM resolution, 16 bit, green laser, at 400V and at 500 V.
# The samples were processed and run on a 4-12% Bis-Tris Novex NuPAGE gel as described above. The gels were run, transferred and stained essentially as described above.
# The Isocitrate dehydrogenase blot was stripped by incubating for 30 minutes with methanol, followed by two 10 minute washes with TBS-T, then 30 minutes of incubation with stripping buffer at 50 deg C., and followed by two washes with 100 ml or more of TBS-T for 30′ each. The blot was scanned in laser scanner to check for complete stripping. The blot was activated with methanol for 5 seconds, washed with water for 5 minutes, and TBST for 15 minutes. The blot was blocked for 1 hour with 5% blocking reagent in TBS-T at room temperature and then washed 3 times with TBS-T (1×-15′; 2×5′ each). This was then probed with the rabbit polyclonal antibody for ATP Citrate Lyase in 5% BSA (Cell Signaling #4332) at 1:1000 dilution overnight at 4 deg C. with shaking. After the overnight incubation with primary antibody for ATP Citrate Lyase, the membrane was washed 3 times with TBS-T (1×-15′; 2×5′ each) and probed with the secondary antibody (antirabbit; 1:10,000 dilution) for 1 h on the orbital tilting shaker at room temperature. After 1 h of incubation with secondary antibodies, the blot was washed 3 times with TBS-T (1×-15′; 2×5′ each) and then incubated with ECF reagent for 5 minutes and then each blot scanned with 5100 Fuji Laser scanner at 25 uM resolution, 16 bit, green laser, at 400V and at 500 V.
# In this experiment (western blot experiment 3), and in all of the experiments described below in this Example (i.e., western blot experiments 4 through 9), the cells were additionally treated with either 5 mM glucose (“5G”) or 22 mM glucose (“22G”). The samples derived from the cells were processed and run on a 4-12% Bis-Tris Novex NuPAGE gel as described above. The gels were run, transferred and stained essentially as described above.
# The levels of IDH1, ATP citrate lyase and actin levels were determined by probing the blots with primary antibodies for IDH1, ATP citrate lyase and actin, essentially as described above.
# HDFa cells [3] = experiment: Oxygen consumption rate (OCR), SeaHorse XF analyzer; type: cell-based, human; conditions: presence of CoQ10
# Source text: (§1) Environmental influencers (e.g., MIMs or Epi-shifters) may also be identified by changes in cellular energetics. One example of the measurement of cellular energetics are the real-time measures of the consumption of molecular oxygen and/or the change in pH of the media of a cell culture. For example, the ability of a potential epi-shifter to modulate the metabolic state of a cell may be analyzed using, for example, the XF24 Analyzer (Seahorse, Inc.). This technology allows for real time detection of oxygen and pH changes in a monolayer of cells in order to evaluate the bioenergetics of a cell microenvironment. The XF24 Analyzer measures and compares the rates of oxygen consumption (OCR), which is a measure of aerobic metabolism, and extracellular acidification (ECAR), which is a measure of glycolysis, both key indicators of cellular energetics.
# (§2) (SeaHorse Biosciences Inc, North Billerica, Mass.).
# In this experiment, the OCR and extracellular acidification rate (ECAR) in normal cells lines were obtained in the presence and absence of CoQ10 to determine baseline values. It was observed that in its native nutrient environment, the basal OCR rates in normal cells lines are different, and are usually a function of the physiological roles of the cells in the body. […]
# HDFa cells [4] = experiment: Extracellular acidification rate (ECAR), SeaHorse XF analyzer; type: cell-based, human
# Source text: as §1, §2
# In this experiment, the OCR and extracellular acidification rate (ECAR) in normal cells lines were obtained in the presence and absence of CoQ10 to determine baseline values. It was observed that in its native nutrient environment, the basal OCR rates in normal cells lines are different, and are usually a function of the physiological roles of the cells in the body.
# Table 51 below describes the ECAR values (mpH/min) in HDFa cells in the presence or absence of CoQ10 under normoxic and hypoxic conditions at 5.5 mM and 22 mM glucose.
structure (smiles),measurement,setting,value
"COC1=C(OC)C(=O)C(C/C=C(\C)CC/C=C(\C)CC/C=C(\C)CC/C=C(\C)CC/C=C(\C)CC/C=C(\C)CC/C=C(\C)CC/C=C(\C)CC/C=C(\C)CCC=C(C)C)=C(C)C1=O [Q10, Coenzyme Q10]",genes modulated by Q10 treatment (Diabetes arrays),[1],"ABCC8, ACLY, ADRB3, CCL5, CEACAM1, CEBRA, FOXG1, FOXP3, G6PD, GLP1R, GPD1, HNF4A, ICAM1, IGFBP5, INPPL1, IRS2, MAPK14, ME1, NFKB1, PARP1, PIK3C2B, PIK3CD, PPARGC1B, PRKAG2, PTPN1, PYGL, SLC2A4, SNAP25, HNF1B, TNRFSF1A, TRIB3, VAPA, VEGFA, IL4R and IL6"
same,PPARGC1A mRNA downregulated,"[2]; 100 μM Q10, 16 hours",approximately 20 fold
same,PRKAA1 mRNA downregulated,"[2]; 100 μM Q10, 16 hours",~6 fold
same,SNAP25 mRNA downregulated,"[2]; 100 μM Q10, 16 hours",~5 fold
same,PPARGC1A mRNA,"[2]; 100 μM Q10, 48 hours",normalized or were slightly upregulated
same,PRKAA1 mRNA,"[2]; 100 μM Q10, 48 hours",normalized or were slightly upregulated
same,SNAP25 mRNA downregulated,"[2]; 100 μM Q10, 48 hours",approximately 2 fold
same,ATPCL Average Normalized Intensity,"ATP Citrate Lyase (ACL); HDFa, HDF-50",~17500
same,ATPCL Average Normalized Intensity,"ATP Citrate Lyase (ACL); HDFa, HDF-100",~25000
same,ATP Citrate Lysase Normalized Intensity as %,"ATP Citrate Lyase (ACL); HepG2, Hep5g48-50",85%
same,ATP Citrate Lysase Normalized Intensity as %,"ATP Citrate Lyase (ACL); HepG2, Hep5g48-100",79%
same,ATP Citrate Lysase Normalized Intensity as %,"ATP Citrate Lyase (ACL); HepG2, Hep22G48-50",129%
same,ATP Citrate Lysase Normalized Intensity as %,"ATP Citrate Lyase (ACL); HepG2, Hep22G48-100",209%
same,ATPCL Average Normalized Intensity,"ATP Citrate Lyase (ACL); MCF-7, MCF-50",~7500
same,ATPCL Average Normalized Intensity,"ATP Citrate Lyase (ACL); MCF-7, MCF-100",~12500
same,ATP Citrate Lysase Normalized Intensity as %,"ATP Citrate Lyase (ACL); PACA2, PACA5g48-50",68%
same,ATP Citrate Lysase Normalized Intensity as %,"ATP Citrate Lyase (ACL); PACA2, PACA5g48-100",42%
same,ATP Citrate Lysase Normalized Intensity as %,"ATP Citrate Lyase (ACL); PACA2, PACA22G48-50",112%
same,ATP Citrate Lysase Normalized Intensity as %,"ATP Citrate Lyase (ACL); PACA2, PACA22G48-100",174%
same,expression of ACL enzymes,ATP Citrate Lyase (ACL); cancer cells,dose-dependent decrease
same,expression of ACL,ATP Citrate Lyase (ACL); normal cells,trend towards increased expression
same,OCR,HDFa cells [3],influenced OCR
same,ECAR,"HDFa cells [4]; high glucose hypoxic conditions, to value of untreated normoxic conditions",lowering of elevated ECAR
same,ECAR values,"HDFa cells [4]; normal cells, normoxic and hypoxic, 5.5 mM and 22 mM glucose",minimal influence
